Measurements from US20140161786A1, “Therapeutic compositions and related methods” (priority 2012, published 2014).
Where a SMILES comes first, the peptide text is derived from it.

What was measured:
beta chain of insulin = target: T1, beta chain of insulin (Homo sapiens, UniProt P01308); assay: Inhibition of DTT induced aggregation of the beta chain of insulin (molecular chaperone function); type: biochemical; conditions: for molecular chaperone function (inhibition of insulin aggregation): pH 4 and pH 7.4; for inhibition of insulin aggregation, L- versus D-amino acids: FIG. 6b/6c; for inhibition of insulin aggregation: pH 7.4 and pH 5
T1 construct: DTT induced aggregation of the beta chain of insulin
Method: The capacity of the proteins and peptides to inhibit DTT induced aggregation of the beta chain of insulin was assayed using procedures described previously by several authors. See, for example, Hong, D. P. & Fink, A. L. Independent heterologous fibrillation of insulin and its B-chain peptide. Biochemistry 44, 16701-16709, doi:10.1021/bi051658y (2005). Also see, Hong, D. P., Ahmad, A. & Fink, A. L. Fibrillation of human insulin A and B chains. Biochemistry 45, 9342-9353, doi:10.1021/bi0604936 (2006). The aggregation was measured by the increase in absorption at 360 nm as a function of time over twenty minutes.
To determine whether the ThT staining observed in Experiment 4 (above) correlated with molecular chaperone function, each of the peptides was assayed for its ability to inhibit insulin aggregation. The effect of ThT on insulin aggregation was measured as a control. […] […] See, Nielsen, L. et al. Effect of environmental factors on the kinetics of insulin fibril formation: elucidation of the molecular mechanism. Biochemistry 40, 6036-6046, doi:bi002555c [pii] (2001).

[1] = Amyloid fibril formation by thioflavin T (ThT) fluorescence; type: physicochemical; conditions: for pH dependent amyloid fibril formation (ThT staining): buffers pH 3 to pH 10, 37° C., fluorescence at 485 nm; for amyloid fibril formation (ThT staining), L- versus D-amino acids: 100 mM MES pH 7.4, 37° C.
Method: The relative amount of amyloid present in each solution was measured by combining solutions of the hexamers (200 mg 50 ml) dissolved in 100 mM MES pH 7.4 and 50 ml of a 1M buffer solution at the appropriate pH (glycine, pH 3; acetate, pH 4; citrate, pH 5; MES, pH 6; Tris, pH 7; Tris, pH 8; glycine, pH 9; bicarbonate, pH 10) and incubated at 37° C. ThT (10 ml of 10 mM solution) was added and the resultant emission fluorescence at 485 nm for each sample after excitation at 440 nm was measured using a SpectraMax 190 fluorescent microtiter plate reader.
The ability of each hexamer listed in Table 1 to form amyloid fibrils in aqueous buffers was examined. Each of the hexamers (200 mg 50 ml) was added to 100 ml of 100 mM MES pH 7.4 and combined with 50 ml of a 1M buffer solution at the appropriate pH (glycine, pH 3; acetate, pH 4; citrate, pH 5; MES, pH 6; Tris, pH 7; Tris, pH 8; glycine, pH 9; bicarbonate, pH 10) and incubated at 37° C. ThT (10 ml of 10 mM solution) was added and the resultant fluorescence at 485 nm from excitation at 440 nm was measured using a fluorescent plate reader. The peptides can be segregated into sets A-E: an anionic set forming fibrils at pH 3, pH 4, and pH 5 (A), a cationic group forming fibrils only at pH 10 (B), three cationic sequences that form amyloid fibrils at all pHs measured (C), a nonionizable set of sequences weakly binding ThT at all pHs (D), and a hydrophobic set of sequences that bind ThT at all pHs tested (E). Only a fraction of the peptides formed amyloid fibrils when dissolved in PBS pH 7.4, as measured by staining with thioflavin T (ThT). Their differential propensity to form amyloid fibrils was used to help segregate them into functional sets (Table 1).
With respect the experimental results depicted in FIG. 6: A) L- and D-tau 623-628 and L- and D-Aβ 37-42 (200 μg/50 μl) were each added to 100 μl of 100 mM MES pH 7.4 and incubated at 37° C. ThT (10 μl of 10 μM solution) was added and the resultant fluorescence at 485 nm from excitation at 440 nm was measured using a fluorescent plate reader. The levels of ThT were similar in both sets of hexapeptides. […] D) Groups of ten mice were injected daily intraperitoneally for 10 days with 1 μg of L-tau or D-tau hexapeptides beginning at onset of hindlimb weakness. PBS was injected in littermates as control. Bar represents the duration of the treatment. Values in graph represent mean+/−S.E.M. *p<0.05 for L-tau and ̂p<0.05 for D-tau by Mann-Whitney U test.

EAE mice = assay: EAE mouse model, reduction of paralytic symptoms; type: in vivo
[2] = system: plasma cytokine levels (IL-6, IL-2, TGF-β, IL-17); assay: Plasma cytokine levels in EAE mice (multiplex-bead-analysis of 26 cytokines); type: in vivo; conditions: 1 μg of Tau 623-628 or 10 μg of HspB1 daily for two days, bled 12 hours later
Method: EAE was induced by procedures previously described. See, Steinman, L. & Zamvil, S. S. How to successfully apply animal studies in experimental allergic encephalomyelitis to research on multiple sclerosis. Ann Neurol 60, 12-21, doi:10.1002/ana.20913 (2006). […] Sera from EAE mice were collected following two days of treatment with 10 μg HspB1 protein, 1 μg tau 623-628 (VQIVYK)(SEQ ID NO: 123), or PBS. Twenty-six cytokines were analyzed by multiplex-bead-analysis.
To determine whether a hexamer modulated the plasma cytokine levels equivalent to an intact small heat shock protein, groups of five mice were treated after the onset of hindlimb weakness with daily injections of either 1 μg of Tau 623-628 or 10 μg of HspB1 for two days and bled 12 hours later.

[3] = mice, 1 μg peptide injected daily from onset of hindlimb weakness, PBS control

T1 sequence (P01308 25-54 limits assumed): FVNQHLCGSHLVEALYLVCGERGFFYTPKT

Compound: Cc1ccc2c(c1)sc(-c1ccc(N(C)C)cc1)[n+]2C.[Cl-] [ThT, thioflavin T, reference compound]
- effect on the rate of insulin aggregation (control) (beta chain of insulin; 10 mM ThT): Neither the addition of 10 mM ThT nor ThT bound to Tau 623-628 affected the rate of insulin aggregation

Compound: insulin B chain 11-16: hexamer of insulin B chain residues 11-16, acidic residue, sequence only in Table 1 image
- pH dependent amyloid fibril formation (ThT staining) [1]: effectively formed amyloid fibrils only in a range of pH 3 to pH 5
- reduction of the paralytic symptoms of EAE (EAE mice; [3]): did not statistically significantly reduce the symptoms of EAE
- molecular chaperone function (inhibition of insulin aggregation) (beta chain of insulin): molecular chaperones at pH 4, but not at pH 7.4

Compound: MVGGVV (Ac-MVGGVV-NH2) [A beta A4 35-40, Ac MVGGVV CONH2 in b76]
- amyloid fibril formation (ThT staining), L- versus D-amino acids [1]: equivalent, within error
- reduction of the paralytic symptoms of EAE (EAE mice; mice, 1 μg peptide daily, administered in 50% DMSO): therapeutic

Compound: amyloid beta A4 16-21: lysine-containing hexamer of amyloid beta A4 residues 16-21 (KLVFFA; Amyloid-beta protein 42; UniProt P05067 687-692, looked up, fragment)
- pH dependent amyloid fibril formation (ThT staining) [1]: formed amyloid fibrils in buffers from pH 3-10

Compound: VQIVYK [Tau 623-628]
- amyloid fibril formation (ThT staining), L- versus D-amino acids [1]: equivalent, within error
- amyloid fibril formation (ThT staining), L- versus D-amino acids ([1]; listed as L-tau 623-628): similar
- pH dependent amyloid fibril formation (ThT staining) [1]: formed amyloid fibrils in buffers from pH 3-10
- reduction of the paralytic symptoms of EAE (EAE mice; [3]): effectively reduced the paralytic symptoms of EAE
- inhibition of insulin aggregation, L- versus D-amino acids (beta chain of insulin): inhibited insulin aggregation with very similar IC50 values
- inhibition of insulin aggregation, L- versus D-amino acids (beta chain of insulin; listed as L-tau): inhibit insulin aggregation in a dose dependent manner with similar IC50 concentrations
- molecular chaperone function (inhibition of insulin aggregation) (beta chain of insulin): inhibited insulin aggregation at pH 4 and pH 7.4
- inhibition of insulin aggregation (beta chain of insulin): potent inhibitor at both pH 7.4 and pH 5
- IC50, inhibition of insulin aggregation (beta chain of insulin; titration, Panel C of FIG. 4): approximately 20 mg
- IL-2 level in serum [2]: smaller reductions
- IL-6 level in serum [2]: dramatic reduction
- IL-17 level in serum [2]: smaller reductions
- TGF-β level in serum [2]: smaller reductions

Compound: L-Aβ 37-42: L-amino acid hexapeptide of FIG. 6A; b76 calls it A beta 35-40 (Ac MVGGVV CONH2) (Ac-MVGGVV-NH2; UniProt P05067 706-711, looked up, fragment)
- amyloid fibril formation (ThT staining), L- versus D-amino acids [1]: similar

Compound: SVNDLV [HspB5 76-81, hexamer of HspB5 residues 76-81]
- pH dependent amyloid fibril formation (ThT staining) [1]: effectively formed amyloid fibrils only in a range of pH 3 to pH 5
- reduction of the paralytic symptoms of EAE (EAE mice; [3]): effectively reduced the paralytic symptoms of EAE
- molecular chaperone function (inhibition of insulin aggregation) (beta chain of insulin): molecular chaperone only at pH4 and not in more basic solutions
- inhibition of insulin aggregation (beta chain of insulin): only effective at pH 5

Compound: SSTNVG [amylin 28-33]
- reduction of the paralytic symptoms of EAE (EAE mice; [3]): therapeutic

Compound: HspB1: intact small heat shock protein
- IL-2 level in serum [2]: smaller reductions
- IL-6 level in serum [2]: dramatic reduction
- IL-17 level in serum [2]: smaller reductions
- TGF-β level in serum [2]: smaller reductions

Compound: LKVKVL [HspB5 89-94, hexamer of HspB5 residues 89-94]
- pH dependent amyloid fibril formation (ThT staining) [1]: bound ThT only at pH 10
- reduction of the paralytic symptoms of EAE (EAE mice; [3]): effectively reduced the paralytic symptoms of EAE

Compound: GYVIIK [serum amyloid P 213-218]
- pH dependent amyloid fibril formation (ThT staining) [1]: formed amyloid fibrils in buffers from pH 3-10
- reduction of the paralytic symptoms of EAE (EAE mice; [3]): therapeutic

Compound: Ac VQIVYK CONH2 [D-tau 623-628]
- amyloid fibril formation (ThT staining), L- versus D-amino acids [1]: similar
- inhibition of insulin aggregation, L- versus D-amino acids (beta chain of insulin): inhibit insulin aggregation in a dose dependent manner with similar IC50 concentrations

Compound: insulin A chain 12-17: hexamer of insulin A chain residues 12-17, acidic residue, sequence only in Table 1 image
- pH dependent amyloid fibril formation (ThT staining) [1]: effectively formed amyloid fibrils only in a range of pH 3 to pH 5
- molecular chaperone function (inhibition of insulin aggregation) (beta chain of insulin): molecular chaperones at pH 4, but not at pH 7.4

Compound: CC(=O)N[C@@H](CO)C(=O)N[C@@H](CC(N)=O)C(=O)N[C@@H](CCC(N)=O)C(=O)N[C@@H](CC(N)=O)C(=O)N[C@@H](CC(N)=O)C(=O)N[C@@H](Cc1ccccc1)C(N)=O [prion 148-153, SNQNNF] (Ac-SNQNNF-NH2)
- reduction of the paralytic symptoms of EAE (EAE mice; mouse, in vivo): therapeutic

Compound: NKGAII [A beta A4 27-32]
- pH dependent amyloid fibril formation (ThT staining) [1]: bound ThT only at pH 10
- reduction of the paralytic symptoms of EAE (EAE mice; [3]): therapeutic
